Read-outs that look alike come from different tables or passages of the source. One block for each molecule: values may come before it.
What was measured:
[1] = format: in vivo, healthy female subjects; set-up: AUC0-t, Central Value, Test / AUC0-t, Central Value, Reference / AUCinf, Central Value, Test / AUCinf, Central Value, Reference: unit not given beside the values; details: for Bioequivalence in the presence and absence of upadacitinib: 90% CIs of Cmax and AUC ratios within 0.8 to 1.25; for Tmax: median (minimum to maximum); for AUC(0-inf): AUCinf; for half-life: t1/2 (terminal half-life), harmonic mean (pseudo-standard deviation)
other JAK isoforms = details: relative to JAK1; cited from earlier work
[2] = Safety assessment during the study; format: in vivo, healthy female subjects; details: period 2
JAK1 = details: cited from earlier work
cytochrome P450 (CYP) 3A = details: coadministration following multiple doses of ketoconazole; cited from earlier work
[3] = cited from earlier work
[4] = ethinylestradiol/levonorgestrel 0.03/0.15 mg with upadacitinib 30 mg QD, period 2, N = 20
[5] = ethinylestradiol/levonorgestrel 0.03/0.15 mg alone, period 1 day 1, N = 22, mean ± SD
[6] = ethinylestradiol/levonorgestrel 0.03/0.15 mg with upadacitinib 30 mg QD, period 2, N = 20, mean ± SD
[7] = period 1, day 1 (oral contraceptive alone), repeated measures analysis
[8] = period 2, day 12 (with upadacitinib 30 mg QD), repeated measures analysis

Bioequivalence in the presence and absence of upadacitinib [1]: bioequivalent | Tmax [1, 4]: 1.5 (1.0–3.0) h | AUC(0-t) ([1]; female, human, plasma, po, AUC0-t, Central Value, Test, period 2, day 12 (with upadacitinib 30 mg QD), repeated measures analysis): 0.39 ng·h/mL | AUC(0-t) ([1]; female, human, plasma, po, AUC0-t, ethinylestradiol/levonorgestrel 0.03/0.15 mg alone, period 1 day 1, N = 22, mean ± SD): 0.378 ± 0.154 ng·h/mL | AUC(0-t) ([1]; female, human, plasma, po, AUC0-t, ethinylestradiol/levonorgestrel 0.03/0.15 mg with upadacitinib 30 mg QD, period 2, N = 20, mean ± SD): 0.426 ± 0.137 ng·h/mL | AUC(0-inf) ([1]; female, human, plasma, po, Central Value, Test, period 2, day 12 (with upadacitinib 30 mg QD), repeated measures analysis): 0.445 ng·h/mL | AUC(0-inf) ([1]; female, human, plasma, po, ethinylestradiol/levonorgestrel 0.03/0.15 mg alone, period 1 day 1, N = 22, mean ± SD): 0.441 ± 0.193 ng·h/mL | half-life ([1]; female, human, plasma, po, ethinylestradiol/levonorgestrel 0.03/0.15 mg alone, period 1 day 1, N = 22): 7 h | half-life ([1]; female, human, plasma, po, ethinylestradiol/levonorgestrel 0.03/0.15 mg with upadacitinib 30 mg QD, period 2, N = 20): 7.7 h
SMILES: C#C[C@]1(O)CC[C@H]2[C@@H]3CCc4cc(O)ccc4[C@H]3CC[C@@]21C [Ethinylestradiol]

Bioequivalence in the presence and absence of upadacitinib [1]: bioequivalent | AUC(0-t) [1, 5]: 43.0 ± 18.4 ng·h/mL | AUCinf [1, 5]: 51.7 ± 22.0 ng·h/mL | Cmax [1, 5]: 3.9 ± 1.4 ng/mL | Tmax ([1]; ethinylestradiol/levonorgestrel 0.03/0.15 mg alone, period 1 day 1, N = 22): 0.8 (0.5–2.0) h | AUC(0-t) [1, 6]: 38.7 ± 12.1 ng·h/mL | AUCinf [1, 6]: 49.5 ± 20.4 ng·h/mL | Cmax [1, 6]: 3.7 ± 1.15 ng/mL | Tmax [1, 4]: 0.8 (0.5–2.0) h | AUC0-t, Central Value, Reference [1, 7]: 39.6 | AUCinf, Central Value, Reference [1, 7]: 47.6 | AUC0-t, Central Value, Test [1, 8]: 36.3 | AUCinf, Central Value, Test [1, 8]: 45.5
SMILES: C#C[C@]1(O)CC[C@H]2[C@@H]3CCC4=CC(=O)CC[C@@H]4[C@H]3CC[C@@]21CC [Levonorgestrel]

effect of upadacitinib on the exposures of ethinylestradiol or levonorgestrel ([1]; upadacitinib 30 mg QD repeated doses): no effect
SMILES: CC[C@@H]1CN(C(=O)NCC(F)(F)F)C[C@@H]1c1cnc2cnc3[nH]ccc3n12 [Upadacitinib]
potency against the other JAK isoforms (other JAK isoforms): less potent | relation of treatment-emergent adverse events to upadacitinib [2]: not considered to have a reasonable possibility of being related | JAK1 inhibition (JAK1): potently inhibits JAK1 | increase in upadacitinib AUC (cytochrome P450 (CYP) 3A): 75% | increase in upadacitinib Cmax (cytochrome P450 (CYP) 3A): 70% | accumulation upon multiple QD dosing ([3]; extended-release formulation): No significant accumulation | administered dose eliminated in urine and feces as unchanged upadacitinib ([3]; in vivo): > 60% | time to steady state ([3]; multiple QD dosing, extended-release formulation): ≤ 4 days

Reference: PMC6587524 (Journal of Clinical Pharmacology, 2018)
